Consider four cell lines from the supplement of paper PMC10307832.

What all share (assay): relative viability (nuclei count vs DMSO), 5 days (fraction); higher = more cells survive
Compound in the experiment “XMD8-85 + Olaparib”: CN1CCN(CC1)C2=CC(=C(C=C2)NC3=NC=C4C(=N3)N(C5=CC=CC=C5C(=O)N4C)C)OC [XMD8-85] + O=C(c1cc(Cc2n[nH]c(=O)c3ccccc23)ccc1F)N1CCN(C(=O)C2CC2)CC1 [Olaparib] (partner 8 µM)
In outline:
(§1)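 Five library-drug doses in √10 steps were combined with a fixed anchor-drug dose, or a single drug was given alone, by pin tool to lung cancer cell lines in 1536-well plates the day after seeding. Nuclei were stained and counted after 5 days. Relative viability is the nuclei count in treated wells over that in vehicle wells, taken as the median of duplicate plates.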

Compound in the experiment “4EGI-1 + Trametinib”: O=C(O)C(Cc1ccccc1[N+](=O)[O-])=NNc1nc(-c2ccc(Cl)c(Cl)c2)cs1 (mixture of isomers) [4EGI-1] + CC(=O)Nc1cccc(-n2c(=O)n(C3CC3)c(=O)c3c(Nc4ccc(I)cc4F)n(C)c(=O)c(C)c32)c1 [Trametinib] (partner 0.02 µM)
The gist of the method: as §1

Compound in the experiment “4EGI-1 + OSI-027”: O=C(O)C(Cc1ccccc1[N+](=O)[O-])=NNc1nc(-c2ccc(Cl)c(Cl)c2)cs1 (mixture of isomers) [4EGI-1] + COc1cccc2cc(-c3nc([C@H]4CC[C@H](C(=O)O)CC4)n4ncnc(N)c34)[nH]c12 [OSI-027] (partner 0.5 µM)
In outline: as §1

Compound in the experiment “4EGI-1 + Crizotinib”: O=C(O)C(Cc1ccccc1[N+](=O)[O-])=NNc1nc(-c2ccc(Cl)c(Cl)c2)cs1 (mixture of isomers) [4EGI-1] + C[C@@H](Oc1cc(-c2cnn(C3CCNCC3)c2)cnc1N)c1c(Cl)ccc(F)c1Cl [Crizotinib] (partner 1 µM)
In outline:
as §1

Take NCI-H441: the relative viability in the experiment with XMD8-85 + Olaparib (first compound 0.08 µM) came to 0.405; in the experiment with XMD8-85 + Olaparib (first compound 0.253 µM), 0.553; in the experiment with XMD8-85 + Olaparib (first compound 0.8 µM), 0.421; with XMD8-85 + Olaparib (first compound 2.53 µM), 0.538; with XMD8-85 + Olaparib (first compound 8 µM) it was 0.371; with 4EGI-1 + Trametinib (first compound 0.5 µM) it was 0.613. Besides, the relative viability with 4EGI-1 + Trametinib (first compound 1.581 µM) came out at 0.471; with 4EGI-1 + Trametinib (first compound 5 µM), 0.449; in the experiment with 4EGI-1 + Trametinib (first compound 15.81 µM), 0.428; with 4EGI-1 + Trametinib (first compound 50 µM), 0.127; in the experiment with 4EGI-1 + OSI-027 (first compound 0.5 µM), 0.812; with 4EGI-1 + OSI-027 (first compound 1.581 µM), 0.488. Moreover, the relative viability in the experiment with 4EGI-1 + OSI-027 (first compound 5 µM) was 0.653; with 4EGI-1 + OSI-027 (first compound 15.81 µM), 0.478; with 4EGI-1 + OSI-027 (first compound 50 µM), 0.333; with 4EGI-1 + Crizotinib (first compound 0.5 µM), 0.968; in the experiment with 4EGI-1 + Crizotinib (first compound 1.581 µM), 0.472; with 4EGI-1 + Crizotinib (first compound 5 µM), 0.72. Also, the relative viability was determined as 0.461 with 4EGI-1 + Crizotinib (first compound 15.81 µM) and 0.213 with 4EGI-1 + Crizotinib (first compound 50 µM).

Consider NCI-H1355, for which the relative viability with XMD8-85 + Olaparib (first compound 0.08 µM) is 0.744; with XMD8-85 + Olaparib (first compound 0.253 µM), 0.79; in the experiment with XMD8-85 + Olaparib (first compound 0.8 µM), 0.714; with XMD8-85 + Olaparib (first compound 2.53 µM), 0.657; with XMD8-85 + Olaparib (first compound 8 µM), 0.589; with 4EGI-1 + Trametinib (first compound 0.5 µM), 0.47. The relative viability with 4EGI-1 + Trametinib (first compound 1.581 µM) is 0.428; with 4EGI-1 + Trametinib (first compound 5 µM) it was 0.372; with 4EGI-1 + Trametinib (first compound 15.81 µM), 0.319; in the experiment with 4EGI-1 + Trametinib (first compound 50 µM), 0.33; with 4EGI-1 + OSI-027 (first compound 0.5 µM), 0.397; with 4EGI-1 + OSI-027 (first compound 1.581 µM), 0.354. Also, the relative viability with 4EGI-1 + OSI-027 (first compound 5 µM) amounted to 0.384; with 4EGI-1 + OSI-027 (first compound 15.81 µM), 0.291; in the experiment with 4EGI-1 + OSI-027 (first compound 50 µM) it was 0.264; with 4EGI-1 + Crizotinib (first compound 0.5 µM) it was 1.18; with 4EGI-1 + Crizotinib (first compound 1.581 µM), 0.952; in the experiment with 4EGI-1 + Crizotinib (first compound 5 µM), 1.03. Also, the relative viability with 4EGI-1 + Crizotinib (first compound 15.81 µM) turned out to be 0.779; with 4EGI-1 + Crizotinib (first compound 50 µM), 0.748.

In the case of HCC-44, the relative viability is 0.991 in the experiment with XMD8-85 + Olaparib (first compound 0.08 µM); 0.955 in the experiment with XMD8-85 + Olaparib (first compound 0.253 µM); 0.946 with XMD8-85 + Olaparib (first compound 0.8 µM); 0.996 in the experiment with XMD8-85 + Olaparib (first compound 2.53 µM); 0.849 in the experiment with XMD8-85 + Olaparib (first compound 8 µM); 1.04 in the experiment with 4EGI-1 + Trametinib (first compound 0.5 µM). Also, the relative viability came to 0.948 with 4EGI-1 + Trametinib (first compound 1.581 µM); 0.994 with 4EGI-1 + Trametinib (first compound 5 µM); 0.921 with 4EGI-1 + Trametinib (first compound 15.81 µM); 0.507 with 4EGI-1 + Trametinib (first compound 50 µM); 0.483 with 4EGI-1 + OSI-027 (first compound 0.5 µM); 0.41 with 4EGI-1 + OSI-027 (first compound 5 µM). Moreover, the relative viability came to 0.404 with 4EGI-1 + OSI-027 (first compound 15.81 µM); 0.175 in the experiment with 4EGI-1 + OSI-027 (first compound 50 µM); 0.841 with 4EGI-1 + Crizotinib (first compound 0.5 µM); 0.6 in the experiment with 4EGI-1 + Crizotinib (first compound 1.581 µM); 0.8 with 4EGI-1 + Crizotinib (first compound 5 µM); 0.656 with 4EGI-1 + Crizotinib (first compound 15.81 µM). Besides, in the experiment with 4EGI-1 + Crizotinib (first compound 50 µM), the relative viability was 0.186.

Consider NCI-H2085, for which the relative viability with XMD8-85 + Olaparib (first compound 0.08 µM) amounted to 0.729; with XMD8-85 + Olaparib (first compound 0.253 µM) it was 0.743; in the experiment with XMD8-85 + Olaparib (first compound 0.8 µM) it was 0.77; with XMD8-85 + Olaparib (first compound 2.53 µM) it was 0.725; with XMD8-85 + Olaparib (first compound 8 µM) it was 0.699; with 4EGI-1 + Trametinib (first compound 0.5 µM), 0.553. The relative viability turned out to be 0.594 with 4EGI-1 + Trametinib (first compound 1.581 µM); 0.53 with 4EGI-1 + Trametinib (first compound 5 µM); 0.355 with 4EGI-1 + Trametinib (first compound 15.81 µM); 0.364 in the experiment with 4EGI-1 + Trametinib (first compound 50 µM); 0.837 with 4EGI-1 + OSI-027 (first compound 0.5 µM); 0.777 with 4EGI-1 + OSI-027 (first compound 1.581 µM). Further, the relative viability with 4EGI-1 + OSI-027 (first compound 5 µM) is 0.704; with 4EGI-1 + OSI-027 (first compound 15.81 µM), 0.378; in the experiment with 4EGI-1 + OSI-027 (first compound 50 µM) it was 0.428; with 4EGI-1 + Crizotinib (first compound 0.5 µM), 0.916; with 4EGI-1 + Crizotinib (first compound 1.581 µM) it was 0.901; in the experiment with 4EGI-1 + Crizotinib (first compound 5 µM), 0.86. The figures for the relative viability with 4EGI-1 + Crizotinib (first compound 15.81 µM) and with 4EGI-1 + Crizotinib (first compound 50 µM) were 0.784 and 0.578, respectively.
